In US20170022171A1, “2,5-DISUBSTITUTED CYCLOPENTANECARBOXYLIC ACIDS AND THEIR USE” (Bayer Pharma Aktiengesellschaft, priority 2014, published 2017) one finds IC50 data, which are given here for seven molecules.

Holding throughout (type): biochemical
One assay addresses T1, MMP-1 (Homo sapiens, UniProt P03956).
T1 construct: purchased R&D Systems 901-MP
T1 sequence (P03956 100-469): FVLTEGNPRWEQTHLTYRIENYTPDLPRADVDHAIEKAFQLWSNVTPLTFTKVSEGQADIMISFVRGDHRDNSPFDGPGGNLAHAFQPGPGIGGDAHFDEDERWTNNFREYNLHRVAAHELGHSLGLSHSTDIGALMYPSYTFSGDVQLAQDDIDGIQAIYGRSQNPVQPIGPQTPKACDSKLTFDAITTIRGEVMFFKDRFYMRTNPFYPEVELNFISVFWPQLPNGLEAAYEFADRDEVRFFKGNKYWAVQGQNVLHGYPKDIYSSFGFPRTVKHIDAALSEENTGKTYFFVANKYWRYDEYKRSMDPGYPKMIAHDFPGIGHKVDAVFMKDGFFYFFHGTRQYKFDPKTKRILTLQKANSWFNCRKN
Description: In vitro MMP-1 inhibition test. Summed up:
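APMA-activated recombinant enzyme (e.g. 2 nM final) in 50 mM Tris/HCl pH 7.5, 10 mM CaCl2, 150 mM NaCl, 0.05% Brij-35 with compound in DMSO (e.g. 1 nM–30 μM). Quenched Mca-Pro-Leu-Gly-Leu-Dpa(Dnp)-Ala-Arg-NH2 substrate (e.g. 10 μM) started reaction; fluorescence (ex 320/em 410 nm) followed e.g. 120 min at 32° C; IC50 at 50% signal.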

For another assay, the target named is T2, MMP-13 (Homo sapiens, UniProt P45452).
T2 construct: purchased R&D Systems 511-MP
In words: In vitro MMP-13 inhibition test. Summed up: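 APMA-activated recombinant MMP-13 (e.g. 0.1 nM final) in 50 mM Tris/HCl pH 7.5, 10 mM CaCl2, 150 mM NaCl, 0.05% Brij-35 with Mca-PLGL-Dpa(Dnp)-AR-NH2 substrate (e.g. 10 μM final). Fluorescence (ex 320/em 410 nm) followed e.g. 120 min at 32 °C; IC50 at 50% signal.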

Another assay has as its target T3, MMP-14 (Homo sapiens, UniProt P50281).
T3 construct: purchased R&D Systems 918-MP
Description: In vitro MMP-14 inhibition test. Summed up: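 Furin-activated recombinant MMP-14 (e.g. 0.5 nM final) with compound in Tris pH 7.5, CaCl2, NaCl, Brij-35 buffer; Mca/Dnp quenched peptide substrate, e.g. 5 μM final. Fluorescence (ex 320/em 410 nm) followed e.g. 120 min at 32 °C; IC50 at half-maximal signal.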

Another assay addresses T4, mouse MMP-2 (Mus musculus, UniProt P33434).
T4 construct: purchased R&D Systems 924-MP
Description: In vitro mouse MMP-2 inhibition test. An excerpt:
The MMP-mediated amidolytic cleavage of a suitable peptide substrate leads to an increase in fluorescent light here too. The signal intensity of the fluorescent light is directly proportional to the enzyme activity. The active concentration of a test compound at which half the enzyme is inhibited (50% signal intensity of the fluorescent light) is reported as the IC50 value.
Recombinant mouse MMP-2 (from R&D Systems, 924-MP) is chemically activated in accordance with the manufacturer's instructions using APMA. 1 μl of the test compound to be analysed (as a solution in DMSO, suitable concentrations, for example, 1 nM to 30 μM) is pipetted into 24 μl of activated enzyme (final concentration, for example, 0.1 nM) in reaction buffer (50 mM Tris/HCl pH 7.5, 10 mM CaCl2, 150 mM NaCl, 0.05% Brij®-35) in a white 384-hole microtiter plate (MTP). The enzymatic reaction is started by adding the intramolecularly quenched Mca-Pro-Leu-Gly-Leu-Dpa(Dnp)-Ala-Arg-NH2 substrate (final concentration, for example, 10 μM; R&D Systems, ES-001), so as to result in a total test volume of 50 The course of the MMP-2 reaction is measured by measuring the fluorescence intensity (excitation 320 nm, emission 410 nm) over a suitable period of time (for example over 120 min at a temperature of 32° C.).

T4 sequence (P33434 110-662): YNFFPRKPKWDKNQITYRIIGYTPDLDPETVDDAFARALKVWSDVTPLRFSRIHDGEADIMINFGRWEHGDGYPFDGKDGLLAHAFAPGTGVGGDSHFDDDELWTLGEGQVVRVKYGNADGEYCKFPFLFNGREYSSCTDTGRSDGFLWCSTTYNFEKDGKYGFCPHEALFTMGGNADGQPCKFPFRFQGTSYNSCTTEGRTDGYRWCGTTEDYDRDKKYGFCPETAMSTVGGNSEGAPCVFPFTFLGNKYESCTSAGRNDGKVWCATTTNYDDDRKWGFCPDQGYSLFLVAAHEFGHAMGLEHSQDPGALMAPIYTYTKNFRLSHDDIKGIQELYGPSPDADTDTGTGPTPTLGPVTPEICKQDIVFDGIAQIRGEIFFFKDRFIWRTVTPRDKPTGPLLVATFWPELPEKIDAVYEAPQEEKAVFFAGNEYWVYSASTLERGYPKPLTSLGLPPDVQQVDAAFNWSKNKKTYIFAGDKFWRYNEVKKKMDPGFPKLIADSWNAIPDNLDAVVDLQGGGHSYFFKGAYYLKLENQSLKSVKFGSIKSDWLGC

As to `Cc1ccc2nnn(C[C@@H]3CC[C@H](C(=O)c4ccc(OCc5ccccc5)cc4)[C@H]3C(=O)O)c(=O)c2c1` (racemic) [Example 91, (+/−)-(1RS,2RS,5SR)-2-[4-(Benzyloxy)benzoyl]-5-[(6-methyl-4-oxo-1,2,3-benzotriazin-3(4H)-yl)methyl]cyclopentanecarboxylic acid], the concentration for half-maximal inhibition (IC50) was 5700 nM against MMP-1, 50 nM against MMP-13, 68 nM at MMP-14 and 95 nM against mouse MMP-2.

In the case of `O=C(O)[C@H]1[C@H](Cn2nnc3ccc(C(F)(F)F)cc3c2=O)CC[C@@H]1C(=O)c1ccc(OCC2CCCCC2)cc1` (racemic) [Example 40, (+/−)-(1RS,2RS,5SR)-2-[4-(Cyclohexylmethoxy)benzoyl]-5-{[4-oxo-6-(trifluoromethyl)-1,2,3-benzotriazin-3(4H)-yl]methyl}cyclopentanecarboxylic acid], the IC50 against MMP-1 amounted to 3800 nM; at MMP-13, 380 nM; against MMP-14, 460 nM; on mouse MMP-2 it was 570 nM.

Regarding `O=C(O)[C@@H]1[C@@H](Cn2nnc3ccc(C(F)(F)F)cc3c2=O)CC[C@H]1C(=O)c1ccc(OCC2CCCCC2)cc1` (single isomer, unassigned) [Example 41, (+)-(1RS,2RS,5SR)-2-[4-(Cyclohexylmethoxy)benzoyl]-5-{[4-oxo-6-(trifluoromethyl)-1,2,3-benzotriazin-3(4H)-yl]methyl}cyclopentanecarboxylic acid], the IC50 on MMP-1 was 3100 nM; on MMP-13, 110 nM; against MMP-14, 110 nM; against mouse MMP-2 it was 180 nM.

Take `Cc1ccc2nnn(C[C@H]3CC[C@@H](C(=O)c4ccc(OCc5cccc(C(F)(F)F)c5)cc4)[C@@H]3C(=O)O)c(=O)c2c1` (single isomer, unassigned) [Example 101, (+)-(1RS,2SR,5RS)-2-[(6-Methyl-4-oxo-1,2,3-benzotriazin-3(4H)-yl)methyl]-5-(4-{[3-(trifluoromethyl)benzyl]oxy}benzoyl)cyclopentanecarboxylic acid]: the IC50 stood at 14000 nM against MMP-1, 210 nM against MMP-13, 380 nM at MMP-14 and 490 nM at mouse MMP-2.

`Cc1ccc2nnn(C[C@H]3CC[C@@H](C(=O)c4ccc(OCc5cccc(OC(F)(F)F)c5)cc4)[C@@H]3C(=O)O)c(=O)c2c1` (single isomer, unassigned) [Example 110, (+)-(1RS,2SR,5RS)-2-[(6-Methyl-4-oxo-1,2,3-benzotriazin-3(4H)-yl)methyl]-5-(4-{[3-(trifluoromethoxy)benzyl]oxy}benzoyl)cyclopentanecarboxylic acid]: the IC50 against MMP-1 was > 40000 nM; against MMP-13, 260 nM; against MMP-14, 720 nM; against mouse MMP-2, 1100 nM.

As to `O=C(O)[C@H]1[C@H](Cn2nnc3ccc(C(F)(F)F)cc3c2=O)CC[C@@H]1C(=O)c1ccc(OCCCc2ccccc2)cc1` (racemic) [Example 39, (+/−)-(1RS,2SR,5RS)-2-{[4-Oxo-6-(trifluoromethyl)-1,2,3-benzotriazin-3(4H)-yl]methyl}-5-[4-(3-phenylpropoxy)benzoyl]cyclopentanecarboxylic acid], the IC50 was > 40000 nM on MMP-1, 1600 nM at MMP-13, 6400 nM against MMP-14 and 3800 nM at mouse MMP-2.

On to `O=C(O)[C@H]1[C@H](Cn2nnc3ccccc3c2=O)CC[C@@H]1C(=O)c1ccc(OCc2ccc(F)cc2)cc1` (racemic) [Example 1, (+/−)-(1RS,2RS,5SR)-2-{4-[(4-Fluorobenzyl)oxy]benzoyl}-5-[(4-oxo-1,2,3-benzotriazin-3(4H)-yl)methyl]cyclopentanecarboxylic acid], for which the concentration for half-maximal inhibition (IC50) on MMP-1 was found to be 5200 nM; at MMP-13, 11 nM; against MMP-14, 24 nM; against mouse MMP-2, 14 nM.

A word on the IC50: it is the midpoint of a concentration-inhibition curve.
